Bridge positions count the residues as written; N and C are the ends. Square brackets hold non-standard residues; d marks the D form. Peptide text beside a SMILES is read from it. * marks the point of attachment. Bip = N[C@@H](Cc1ccc(-c2ccccc2)cc1)C(=O)O; Phe(3-Me) = Cc1cccc(C[C@H](N)C(=O)O)c1; Val(3-OH) = CC(C)(O)[C@H](N)C(=O)O; Cha = N[C@@H](CC1CCCCC1)C(=O)O; Cit = NC(=O)NCCC[C@H](N)C(=O)O; Tle = CC(C)(C)[C@H](N)C(=O)O; Carboxymethyl = O=C(O)C*; Orn = NCCC[C@H](N)C(=O)O; Aun = NCCCCCCCCCCC(=O)O; Dab = NCC[C@H](N)C(=O)O; Dap = NC[C@H](N)C(=O)O; Sar = CNCC(=O)O
Biological target: T1, PD-1/PD-L1 interaction (PE-labeled human PD-L1-Ig binding to Jurkat cell line over-expressing human PD-1) (Homo sapiens, UniProt Q15116)
T1 construct: expressed in transfected cells; host or cells: Jurkat
Assay: Jurkat-PD-1 Cell Binding High-Content Screening Assay (CBA)
Format: cell-based
Details: Jurkat cell line over-expressing human PD-1; PE-labeled PD-L1-Ig 20 nM final; read-out: Jurkat hPD1-PDL1 IC50
Method in brief: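 Binding of fluorescent PD-L1-Ig (20 nM final) to Jurkat-PD-1 cells was measured by automated imaging after 1 h, following a 2 h compound pre-treatment at 37° C.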

T1 sequence (Q15116 25-288): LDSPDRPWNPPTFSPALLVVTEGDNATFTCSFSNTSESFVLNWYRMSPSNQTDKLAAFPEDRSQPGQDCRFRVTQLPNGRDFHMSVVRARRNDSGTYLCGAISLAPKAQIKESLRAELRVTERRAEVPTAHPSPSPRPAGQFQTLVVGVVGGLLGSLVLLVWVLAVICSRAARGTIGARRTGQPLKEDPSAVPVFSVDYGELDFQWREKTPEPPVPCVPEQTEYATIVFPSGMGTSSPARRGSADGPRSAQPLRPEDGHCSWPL

Row | SMILES | IC50 [nM]
1 | Cc1cccc(C[C@@H]2NC(=O)[C@H](CC(=O)O)NC(=O)[C@H](Cc3ccc(OCC(=O)O)cc3)NC(=O)[C@H](CCCNC(=N)N)NC(=O)CSC[C@@H](C(=O)N[C@@H](CCCN)C(=O)NCCCCCCCCCCC(=O)O)NC(=O)[C@H]([C@@H](C)O)NC(=O)[C@H](C(C)C)NC(=O)[C@H](CC3CCCCC3)NC(=O)[C@H](CCN)NC(=O)[C@@H](CC(C)C)NC(=O)[C@H](CCCN)NC(=O)[C@H](CCCNC(N)=O)NC(=O)[C@H](Cc3ccc(-c4ccccc4)cc3)NC(=O)[C@H](Cc3ccc(O)cc3)NC2=O)c1 [Compound 2835] ({CH2CO}-RY(Carboxymethyl)D[Phe(3-Me)]Y[Bip][Cit][Orn][dL][Dab][Cha]VTC[Orn][Aun]-OH; thioether N-14) | 18.9
2 | Cc1cccc(C[C@@H]2NC(=O)[C@H](CC(=O)O)NC(=O)[C@H](Cc3ccc(OCC(=O)O)cc3)NC(=O)[C@H](CCCNC(=N)N)NC(=O)CSC[C@@H](C(=O)N[C@@H](CCCN)C(=O)NCCCCCCCCCCC(=O)O)NC(=O)[C@H]([C@@H](C)O)NC(=O)[C@H](C(C)C)NC(=O)[C@H](CC3CCCCC3)NC(=O)[C@H](CCN)NC(=O)[C@@H](CC(C)C)NC(=O)[C@H](CCCNC(N)=O)NC(=O)[C@H](Cc3ccc(OCC(=O)O)cc3)NC(=O)[C@H](Cc3ccc(-c4ccccc4)cc3)NC(=O)[C@H](Cc3ccc(OCC(=O)O)cc3)NC2=O)c1 [Compound 2838] ({CH2CO}-RY(Carboxymethyl)D[Phe(3-Me)]Y(Carboxymethyl)[Bip]Y(Carboxymethyl)[Cit][dL][Dab][Cha]VTC[Orn][Aun]-OH; thioether N-14) | 30.2
3 | Cc1cccc(C[C@@H]2NC(=O)[C@H](CC(=O)O)NC(=O)[C@H](Cc3ccc(OCC(=O)O)cc3)NC(=O)[C@H](CN)NC(=O)CSC[C@@H](C(=O)N(C)CC(=O)N[C@@H](CCC(=O)O)C(=O)NCCCCCCCCCCC(=O)O)NC(=O)[C@H]([C@@H](C)O)NC(=O)[C@H](C(C)C)NC(=O)[C@H](CC3CCCCC3)NC(=O)[C@H](CCN)NC(=O)[C@@H](CC(C)C)NC(=O)[C@H](CCCN)NC(=O)[C@H](CCCNC(N)=O)NC(=O)[C@H](Cc3ccc(-c4ccccc4)cc3)NC(=O)[C@H](C(C)C)NC2=O)c1 [Compound 2839] ({CH2CO}-[Dap]Y(Carboxymethyl)D[Phe(3-Me)]V[Bip][Cit][Orn][dL][Dab][Cha]VTC[Sar]E[Aun]-OH; thioether N-14) | 186
4 | Cc1cccc(C[C@@H]2NC(=O)[C@H](CC(=O)O)NC(=O)[C@H](Cc3ccc(OCC(=O)O)cc3)NC(=O)[C@H](CN)NC(=O)CSC[C@@H](C(=O)N[C@@H](CCN)C(=O)NCCCCCCCCCCC(=O)O)NC(=O)[C@H](CCCN)NC(=O)[C@H](C(C)C)NC(=O)[C@H](CC3CCCCC3)NC(=O)[C@H](CCN)NC(=O)[C@@H](CC(C)C)NC(=O)[C@H](CCCN)NC(=O)[C@H](CCCNC(N)=O)NC(=O)[C@H](Cc3ccc(-c4ccccc4)cc3)NC(=O)[C@H](Cc3ccc(OCC(=O)O)cc3)NC2=O)c1 [Compound 2844] ({CH2CO}-[Dap]Y(Carboxymethyl)D[Phe(3-Me)]Y(Carboxymethyl)[Bip][Cit][Orn][dL][Dab][Cha]V[Orn]C[Dab][Aun]-OH; thioether N-14) | 25.5
5 | Cc1cccc(C[C@@H]2NC(=O)[C@H](CC(=O)O)NC(=O)[C@H](Cc3ccc(OCC(=O)O)cc3)NC(=O)[C@H](CN)NC(=O)CSC[C@@H](C(=O)N[C@@H](CCN)C(=O)NCCCCCCCCCCC(=O)O)NC(=O)[C@H]([C@@H](C)O)NC(=O)[C@H](C(C)C)NC(=O)[C@H](CC3CCCCC3)NC(=O)[C@H](CCN)NC(=O)[C@@H](CC(C)C)NC(=O)[C@H](CCCN)NC(=O)[C@H](CCC(N)=O)NC(=O)[C@H](Cc3ccc(-c4ccccc4)cc3)NC(=O)[C@H](C(C)C)NC2=O)c1 [Compound 2847] ({CH2CO}-[Dap]Y(Carboxymethyl)D[Phe(3-Me)]V[Bip]Q[Orn][dL][Dab][Cha]VTC[Dab][Aun]-OH; thioether N-14) | 20.5

These reach a lower IC50. Values come first.

Row | IC50 [nM] | SMILES
6 | 16.4 | Cc1cccc(C[C@@H]2NC(=O)[C@H](CC(=O)O)NC(=O)[C@H](Cc3ccc(OCC(=O)O)cc3)NC(=O)[C@H](CCCNC(=N)N)NC(=O)CSC[C@@H](C(=O)N[C@@H](CCN)C(=O)NCCCCCCCCCCC(=O)O)NC(=O)[C@H]([C@@H](C)O)NC(=O)[C@H](C(C)C)NC(=O)[C@H](CC3CCCCC3)NC(=O)[C@H](CCN)NC(=O)[C@@H](CC(C)C)NC(=O)[C@H](CCCN)NC(=O)[C@H](CCCNC(N)=O)NC(=O)[C@H](Cc3ccc(-c4ccccc4)cc3)NC(=O)[C@H](Cc3ccc(OCC(=O)O)cc3)NC2=O)c1 [Compound 2836] ({CH2CO}-RY(Carboxymethyl)D[Phe(3-Me)]Y(Carboxymethyl)[Bip][Cit][Orn][dL][Dab][Cha]VTC[Dab][Aun]-OH; thioether N-14)
7 | 18.1 | Cc1cccc(C[C@@H]2NC(=O)[C@H](CC(=O)O)NC(=O)[C@H](Cc3ccc(OCC(=O)O)cc3)NC(=O)[C@H](CN)NC(=O)CSC[C@@H](C(=O)N[C@@H](CCN)C(=O)NCCCCCCCCCCC(=O)O)NC(=O)[C@H]([C@@H](C)O)NC(=O)[C@H](C(C)(C)C)NC(=O)[C@H](CC3CCCCC3)NC(=O)[C@H](CCN)NC(=O)[C@@H](CC(C)C)NC(=O)[C@H](CCCN)NC(=O)[C@H](CCCNC(N)=O)NC(=O)[C@H](Cc3ccc(-c4ccccc4)cc3)NC(=O)[C@H](C(C)C)NC2=O)c1 [Compound 2840] ({CH2CO}-[Dap]Y(Carboxymethyl)D[Phe(3-Me)]V[Bip][Cit][Orn][dL][Dab][Cha][Tle]TC[Dab][Aun]-OH; thioether N-14)
8 | 12.3 | Cc1cccc(C[C@@H]2NC(=O)[C@H](CC(=O)O)NC(=O)[C@H](Cc3ccc(OCC(=O)O)cc3)NC(=O)[C@H](CN)NC(=O)CSC[C@@H](C(=O)N[C@@H](CCN)C(=O)NCCCCCCCCCCC(=O)O)NC(=O)[C@H](CCCN)NC(=O)[C@H](C(C)C)NC(=O)[C@H](CC3CCCCC3)NC(=O)[C@H](CCN)NC(=O)[C@@H](CC(C)C)NC(=O)[C@H](CCCN)NC(=O)[C@H](Cc3ccc(O)cc3)NC(=O)[C@H](Cc3ccc(-c4ccccc4)cc3)NC(=O)[C@H](C(C)C)NC2=O)c1 [Compound 2841] ({CH2CO}-[Dap]Y(Carboxymethyl)D[Phe(3-Me)]V[Bip]Y[Orn][dL][Dab][Cha]V[Orn]C[Dab][Aun]-OH; thioether N-14)
9 | 11.1 | Cc1cccc(C[C@@H]2NC(=O)[C@H](CC(=O)O)NC(=O)[C@H](Cc3ccc(OCC(=O)O)cc3)NC(=O)[C@H](CN)NC(=O)CSC[C@@H](C(=O)N[C@@H](CCN)C(=O)NCCCCCCCCCCC(=O)O)NC(=O)[C@H](CCCN)NC(=O)[C@H](C(C)C)NC(=O)[C@H](CC3CCCCC3)NC(=O)[C@H](CCN)NC(=O)[C@@H](CC(C)C)NC(=O)[C@H](CCCN)NC(=O)[C@H](Cc3ccc(OCC(=O)O)cc3)NC(=O)[C@H](Cc3ccc(-c4ccccc4)cc3)NC(=O)[C@H](C(C)C)NC2=O)c1 [Compound 2842] ({CH2CO}-[Dap]Y(Carboxymethyl)D[Phe(3-Me)]V[Bip]Y(Carboxymethyl)[Orn][dL][Dab][Cha]V[Orn]C[Dab][Aun]-OH; thioether N-14)
10 | 9.2 | Cc1cccc(C[C@@H]2NC(=O)[C@H](CC(=O)O)NC(=O)[C@H](Cc3ccc(OCC(=O)O)cc3)NC(=O)[C@H](CN)NC(=O)CSC[C@@H](C(=O)N[C@@H](CCN)C(=O)NCCCCCCCCCCC(=O)O)NC(=O)[C@H](CCCN)NC(=O)[C@H](C(C)C)NC(=O)[C@H](CC3CCCCC3)NC(=O)[C@H](CCN)NC(=O)[C@@H](CC(C)C)NC(=O)[C@H](CCCN)NC(=O)[C@H](Cc3ccc(OCC(=O)O)cc3)NC(=O)[C@H](Cc3ccc(-c4ccccc4)cc3)NC(=O)[C@H](Cc3ccc(OCC(=O)O)cc3)NC2=O)c1 [Compound 2843] ({CH2CO}-[Dap]Y(Carboxymethyl)D[Phe(3-Me)]Y(Carboxymethyl)[Bip]Y(Carboxymethyl)[Orn][dL][Dab][Cha]V[Orn]C[Dab][Aun]-OH; thioether N-14)
11 | 14.2 | Cc1cccc(C[C@@H]2NC(=O)[C@H](CC(=O)O)NC(=O)[C@H](Cc3ccc(OCC(=O)O)cc3)NC(=O)[C@H](CN)NC(=O)CSC[C@@H](C(=O)N[C@@H](CCN)C(=O)NCCCCCCCCCCC(=O)O)NC(=O)[C@H](CCCN)NC(=O)[C@H](C(C)C)NC(=O)[C@H](CC3CCCCC3)NC(=O)[C@H](CCN)NC(=O)[C@@H](CC(C)C)NC(=O)[C@H](CCCN)NC(=O)[C@H](CCCNC(N)=O)NC(=O)[C@H](Cc3ccc(-c4ccccc4)cc3)NC(=O)[C@H](C(C)C)NC2=O)c1 [Compound 2845] ({CH2CO}-[Dap]Y(Carboxymethyl)D[Phe(3-Me)]V[Bip][Cit][Orn][dL][Dab][Cha]V[Orn]C[Dab][Aun]-OH; thioether N-14)
12 | 12.8 | Cc1cccc(C[C@@H]2NC(=O)[C@H](CC(=O)O)NC(=O)[C@H](Cc3ccc(OCC(=O)O)cc3)NC(=O)[C@H](CN)NC(=O)CSC[C@@H](C(=O)N[C@@H](CCN)C(=O)NCCCCCCCCCCC(=O)O)NC(=O)[C@H](CCCN)NC(=O)[C@H](C(C)C)NC(=O)[C@H](CC3CCCCC3)NC(=O)[C@H](CCN)NC(=O)[C@@H](CC(C)C)NC(=O)[C@H](CCCN)NC(=O)[C@H](CCCNC(N)=O)NC(=O)[C@H](Cc3ccc(-c4ccccc4)cc3)NC(=O)[C@H](Cc3ccc(O)cc3)NC2=O)c1 [Compound 2846] ({CH2CO}-[Dap]Y(Carboxymethyl)D[Phe(3-Me)]Y[Bip][Cit][Orn][dL][Dab][Cha]V[Orn]C[Dab][Aun]-OH; thioether N-14)
13 | 5 | Cc1cccc(C[C@@H]2NC(=O)[C@H](CC(=O)O)NC(=O)[C@H](Cc3ccc(OCC(=O)O)cc3)NC(=O)[C@H](CCCNC(=N)N)NC(=O)CSC[C@@H](C(=O)N[C@@H](CCN)C(=O)NCCCCCCCCCCC(=O)O)NC(=O)[C@H](CCCN)NC(=O)[C@H](C(C)(C)O)NC(=O)[C@H](CC3CCCCC3)NC(=O)[C@H](CCN)NC(=O)[C@@H](CC(C)C)NC(=O)[C@H](CCCN)NC(=O)[C@H](Cc3ccc(OCC(=O)O)cc3)NC(=O)[C@H](Cc3ccc(-c4ccccc4)cc3)NC(=O)[C@H](Cc3ccc(OCC(=O)O)cc3)NC2=O)c1 [Compound 2849] ({CH2CO}-RY(Carboxymethyl)D[Phe(3-Me)]Y(Carboxymethyl)[Bip]Y(Carboxymethyl)[Orn][dL][Dab][Cha][Val(3-OH)][Orn]C[Dab][Aun]-OH; thioether N-14)

Reference: patent US20260022142A1, “MACROCYCLIC IMMUNOMODULATORS” (Bristol-Myers Squibb Company, priority 2022, published 2026)
